This is an account of results in patent US20220193029A1, “BRYOSTATIN COMPOUNDS FOR ENHANCEMENT OF IMMUNOTHERAPY” (priority 2019, published 2022).

The test system of test [1] is CD22 surface expression in JB cells. Nature of the test: CD22 surface expression assay, AIDS-NHL cell line JB. Conditions: 1 nM or 10 nM, 48 hours.
Description: (§2) AIDS-NHL cell lines were incubated in IF10 medium, consisting of IMDM medium (Life technologies) containing 10% fetal bovine serum (FBS, Omega Scientific), 100 units/mL of penicillin, and 100 μg/ml of streptomycin (Invitrogen). Cells were incubated at 37° C. in 5% CO2.
(§3) Cells were exposed to compound for the either 24 or 48 h before staining and flow cytometric analysis of receptor levels.
(§4) Cells in each well were washed with phosphate buffered saline (PBS) containing 2% FBS, then cells were centrifuged for 9 min at 233 xg and resuspended in 50 μL of a 1:1 dilution of phosphate buffered saline (PBS): Human AB serum (Sigma). […] Stained samples were stored at 4° C. Flow cytometry samples were analyzed using a FACSCelesta (BD Biosciences) flow cytometer and data were analyzed using FlowJo software (version 10).
(§5) Panel C: JB cells were incubated with 1 nM (left hand bars) or 10 nM (right hand bars) of compound for 48 hours. CD22 surface expression was then assayed by flow cytometry (n=6 biological replicates; data presented as mean values ±SE). Panel D: 2F7 cells were incubated with 1 nM (left hand bars) or 10 nM (right hand bars) of compound for 48 hours. CD22 surface expression was then assayed by flow cytometry (n=6 biological replicates; data presented as mean values ±SE).
Another test relates to PKCδ-GFP fusion protein. Nature of the test: PKCδ-GFP translocation assay in living CHO-k1 cells (confocal microscopy). The format is cell-based, Chinese hamster. Conditions: for concentration* (minimum effective concentration required to induce translocation of PKC-GFP to the membrane) / % Translocation: CHO-k1 cells; for % Translocation: maximum translocation of PKCδ-GFP to the plasma membrane at the concentration printed in the same cell, SUW212: only brief translocation observed; for PKC translocation behavior / dynamics of PKC activation: time course, FIG. 6 panels C-D. Here is the method:
(§1) Because a prerequisite for PKC pathway involvement is binding to PKC, compounds were initially evaluated for PKC affinity in a cell-free competitive binding assay with tritiated phorbol dibutyrate ([^3H]-PDBu). Assays were performed with representative members of both the conventional (PKCα) and novel (PKCδ) PKC families. Subsequently, compounds were assayed for PKC activation in living cells using an isoform translocation assay.
Chinese hamster ovary factor K1 (CHO-k1, ATCC) cells were cultured in F-12 Kaighn's media (Hyclone, 10% fetal bovine serum, 1% penicillin/streptomycin added, referred to as F-12+/+ below) at 37° C. in an incubator (5% CO2). Cell cultures were maintained by splitting cells 1:3 when they reached ˜75-100% confluence (every 2-3 days) as follows:
1 mL of the cell suspension was then added to 9 mL of fresh F-12+/+ and the sample was sub-cultured until reaching confluence (˜2-3 days).
Cells were counted using a Countess II Automated Cell Counter (Fisher). The cell suspension was diluted to 240,000 cells/mL with fresh F-12+/+ and 2.5 mL of this diluted stock was added to one well in a 6-well plate. The cells were then cultured for 24 hours.
F-12+/+ was aspirated and cells were washed with F-12−/−. 2 mL of fresh F-12−/− was then added to each well, taking care not to disturb adherent cells. For each well of CHO-k1 cells, 12.5 μL Lipofectamine 2000 reagent (Invitrogen) was added to 250 μL Opti-MEM reduced serum media (Invitrogen) in a polypropylene tube and incubated for 20 minutes at RT. Meanwhile, for each well, 4 μg of PKCδ-GFP pDNA and 250 μL Opti-MEM reduced serum media was added to a separate polypropylene tube. 250 μL of the Lipofectamine 2000 suspension was added to the DNA suspension and the solution incubated for 30 minutes at RT. 500 μL of the Lipofectamine/DNA suspension was added to the respective wells of the 6-well plate. The cells were then incubated at 37° C. (5% CO2) for ˜24 hrs.
F-12+/+ was aspirated and cells were washed with F-12−/−. 2.4 mL of fresh F-12−/− was then added to each well, taking care not to disturb adherent cells. A 4 μg aliquot of PKCδ-GFP pDNA was added to PBS (pH 5.5, final volume 100 μL). 5.6 μL of DA 13:11 (2 mM stock in DMSO) was then added to the DNA solution, and the mixture was gently mixed (by flicking) for 20 seconds, at which point it was added directly to the respective wells of the 6-well plate. The cells were then incubated at 37° C. (5% C02) for ˜24 hrs.
After incubation, the media was aspirated and cells were washed with PBS (2.0 mL) and trypsinized (500 μL). The cell suspension was then diluted with 2.0 mL F-12+/+. 200 μL aliquots were added to 3 wells of a Lab-Tek II 4-well chambered coverglass slide (Fisher), producing 4 slides in total, each with three wells of cells. The cell suspension was directly diluted with 600 μL of additional F-12+/+. The resulting samples were incubated for ˜24 hrs. prior to imaging.
Fluorescent images were obtained using a Leica SP8 White Light Confocal microscope and the Leica AF software package. Prior to analysis, media was aspirated and 800 μL of PBS (Hyclone, without Ca^2+ or Mg^2+) supplemented with glucose (10 mM) was added to each well of the chambered coverglass slide. Bryostatin and bryostatin analogs were diluted to the appropriate concentration in 200 μL of 10 mM glucose in PBS. Cells were located for imaging and data was recorded for three wells in parallel, imaging at predetermined positions in each well using adaptive focus control. Cells were imaged at 30 second intervals following the addition of compound (set to t=0) for 20-40 minutes. Data were recorded at room temperature. Images were exported as .lif files and fluorescence intensity was analyzed using FIJI (NIH) software.

Test [2] deals with CD22 surface expression in 2F7 cells. Nature of the test: CD22 surface expression assay, AIDS-NHL cell line 2F7. Conditions: 1 nM or 10 nM, 48 hours.
Description: as §2, §3, §4, §5
A further test deals with PKC. The experiment in a line: cell-free PKC binding assay, isoform not given. Set-up: species or system human. Here is the method:
as §1
Assay PKC was prepared by dissolving a 4 μg aliquot of the indicated recombinant human PKC isoform (Invitrogen) into 11.6 mL of PKC binding assay buffer (this amount is sufficient for two assays). The diluted PKC was stored on ice for immediate use.
Triplicate data points were obtained for each analog concentration. For each data point, 280 μL of “Master Mix” Solution and 20 μL of analog compound at a specified concentration were added to a polypropylene tube. […] Maximal ^3H-PDBu binding was assessed in triplicate by substitution of the analog compound with 20 μL DMSO. The solutions were vortexed to mix, incubated at 37° C. for 10 min, and incubated on ice for at least 30 min prior to filtration. Using a Brandel Harvester, the assay contents from each polypropylene tube were vacuum-filtered through polyethylenimine-soaked filters, washing with rinsing buffer (3×) and drying first under vacuum for 5 min and then under ambient conditions for ≥2 h. The resulting filters had circular perforations for each data point, which were removed with forceps and placed in a scintillation vial. Scintillation vials were filled with Bio-Safe II scintillation fluid (5 mL) and measured for radioactivity using a Beckman LS 6000SC scintillation counter. Counts per minute (cpm) were averaged for each triplicate dilution. The data were plotted—cpm vs. log(concentration)—using Prism® by GraphPad Software and an IC50 was determined using that program's built-in one-site competition least squares regression function. Ki values were calculated using the equation: Ki=IC50/(1+([3H−PDBu]/Kd)). The Kd of ^3H-PDBu for PKC isoforms was measured separately via saturation binding experiments under identical conditions.

Each structure is given as a SMILES string.

For the compound `C=CCOC(=O)/C=C1/C[C@H]2C[C@]3(O)O[C@H](C[C@@H](O)CC(=O)O[C@@H]([C@@H](C)O)C[C@@H]4C/C(=C\C(=O)OC)[C@H](OC(=O)/C=C/C=C/CCC)[C@@](O)(O4)C(C)(C)/C=C/[C@@H](C1)O2)C[C@H](OC(C)=O)C3(C)C` [SUW229], the “upregulated CD22 surface expression” value in test [1] is recorded as approximately 2 fold. Besides, in the test on PKCδ-GFP fusion protein, the “concentration* (minimum effective concentration required to induce translocation of PKC-GFP to the membrane)” value (“concentration*” below) is recorded as 200 nM, the “% Translocation” value was 50% and the “PKC translocation behavior / dynamics of PKC activation” value (from here on “PKC translocation behavior / dynamics”) is reported as “more sustained linear activation dynamics”. For the same compound, the “upregulated CD22 surface expression” value in test [2] was approximately 2 fold.
`CCCC=CC=CC(=O)OC1C(=CC(=O)OC)CC2CC(C(C)O)OC(=O)CC(O)CC3CC(OC(C)=O)C(C)(C)C(O)(CC4CC(=CC(=O)OCC)CC(C=CC(C)(C)C1(O)O2)O4)O3` (stereo not shown) [SUW218]: in the test with PKCδ-GFP fusion protein, the “concentration*” value came out at 200 nM, the “% Translocation” value came out at 55% and the “PKC translocation behavior / dynamics” value is recorded as “more sustained linear activation dynamics”.
Turning to `CCC/C=C/C=C/C(=O)O[C@H]1/C(=C/C(=O)OC)C[C@H]2C[C@H]([C@@H](C)O)OC(=O)C[C@H](O)C[C@@H]3C[C@H](OC(C)=O)C(C)(C)[C@](O)(C[C@@H]4C[C@@H](OC(C)=O)C[C@H](/C=C/C(C)(C)[C@]1(O)O2)O4)O3` [SUW207], in the test with PKCδ-GFP fusion protein, the “concentration*” value came to 200 nM; the “% Translocation” value worked out at 60%; the “PKC translocation behavior / dynamics” value was “almost identical behavior both to each other and to bryostatin 1”.
On to `CCCCCCCC(=O)O[C@H]1/C(=C/C(=O)OC)C[C@H]2C[C@H]([C@@H](C)O)OC(=O)C[C@H](O)C[C@@H]3C[C@H](OC(C)=O)C(C)(C)[C@](O)(C[C@@H]4C[C@@H](C)C[C@H](/C=C/C(C)(C)[C@]1(O)O2)O4)O3` [SUW226], for which, in the test with PKCδ-GFP fusion protein, the “concentration*” value came out at 200 nM and the “% Translocation” value is recorded as 75%.
As for `CCC/C=C/C=C/C(=O)O[C@H]1/C(=C/C(=O)OC)C[C@H]2C[C@H]([C@@H](C)O)OC(=O)C[C@H](O)C[C@@H]3C[C@H](OC(C)=O)C(C)(C)[C@](O)(C[C@@H]4C[C@H](OC(C)=O)C[C@H](/C=C/C(C)(C)[C@]1(O)O2)O4)O3` [SUW206], in the test with PKCδ-GFP fusion protein, the “concentration*” value came to 200 nM; the “% Translocation” value came out at 60%; the “PKC translocation behavior / dynamics” value is “almost identical behavior both to each other and to bryostatin 1”.
For `CCCCCC#CC(=O)O[C@H]1/C(=C/C(=O)OC)C[C@H]2C[C@H]([C@@H](C)O)OC(=O)C[C@H](O)C[C@@H]3C[C@H](OC(C)=O)C(C)(C)[C@](O)(C[C@@H]4C[C@@](O)(CO)C[C@H](/C=C/C(C)(C)[C@]1(O)O2)O4)O3` [SUW203], the “cytosolic PKC translocated” value in the test on PKCδ-GFP fusion protein (1000 nM) is approximately 50%. Besides, in the test with PKCδ-GFP fusion protein, the “concentration*” value was determined as 1000 nM and the “% Translocation” value is recorded as 50%. In addition, the “binding affinity to PKC, in words” value in the test with PKC is “single-digit nanomolar affinity”.
Take `CCCC=CC=CC(=O)OC1C(=CC(=O)OC)CC2CC(C(C)O)OC(=O)CC(O)CC3CC(OC(C)=O)C(C)(C)C(O)(CC4CC(=CC(=O)OCC)CC(C=CC(C)(C)C1(O)O2)O4)O3` (stereo not shown) [SUW217]: in the test with PKCδ-GFP fusion protein, the “concentration*” value was 200 nM and the “% Translocation” value came out at 75%.
